Measurements published in PMC4741438, “Targeting the SIN3A-PF1 interaction inhibits epithelial to mesenchymal transition and maintenance of a stem cell phenotype in triple negative breast cancer” (Oncotarget, 2015).
Each block holds one compound with its values, some of them ahead of it. Peptide text beside a SMILES is read from it.

Columns and labels:
PAH2 domain of SIN3A = molecular target: T1, PAH2 domain of SIN3A (Mus musculus, UniProt Q60520); assay: Fluorescence anisotropy competition assay, FITC-labeled Mad1 peptide probe; conditions: 70 nM PAH2 domain, 10 nM probe, PBS pH 7.4, 0.01% BSA, 1 h, 25°C; read-out: IC50, competition for binding to FITC-labeled MAD probe
T1 construct: The PAH2 domain of mSin3A was overexpressed in the E. coli BL21 (DE3) codon plus RIL strain; His tag (inferred from Ni2+ chelating column); made in house; host or cells: E. coli BL21 (DE3) codon plus RIL
T1 sequence (Q60520 300-383 limits assumed): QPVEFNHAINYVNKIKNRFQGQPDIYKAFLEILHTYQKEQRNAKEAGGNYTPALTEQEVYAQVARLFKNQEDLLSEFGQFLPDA
Protocol: The PAH2 domain of mSin3A was overexpressed in the E. coli BL21 (DE3) codon plus RIL strain (Stratagene) by addition of 1 mM isopropyl-1-thio-D-galactopyranoside and incubation overnight at 15°C. Harvested cells were re-suspended in 50 mM sodium phosphate buffer, pH 7.4, supplemented with 500 mM sodium chloride, 5% glycerol, and 0.1% Igepal CA-630 and lysed using a microfluidizer (Micro-fluidics) at 20,000 psi. After clarification of the crude extract by high-speed centrifugation, the lysate was loaded onto a 5 ml HiTrap chelating column (GE Healthcare) charged with Ni2+. The column was washed and the protein was eluted with 30 mM HEPES pH 7.4, 250 mM sodium chloride, and 250 mM imidazole. The protein was next purified on a Superdex75 column (GE Healthcare) equilibrated with 20 mM Tris-HCl buffer, pH 8.0, and 150 mM sodium chloride. Fractions containing the pure protein were combined and concentrated with 3 kDa MWCO centrifugal filters (Amicon).
The binding affinity of pSID for SIN3A was assessed in a fluorescence anisotropy competition assay using a fluorescein isothiocyanate-labeled Mad1 peptide as an assay probe. […] Measurements were obtained after a 1 h incubation of the fluorescent ligand and the protein at 25°C with a Safire 2 microplate reader (Tecan). […]

[1] = test system: H3K4me3 at the CDH1 and ESR1 promoters; design: method as in PMID 20547842; conditions: SID peptide, longer time period; cited from earlier work
4T1 cells = assay: Lung metastasis of 4T1 cells in Balb/c mice; type: in vivo, mouse
Protocol: 4T1 cells were treated for 14 days with water, Tat-Scr (2.5 μM) or Tat-SID (1 & 2.5 μM) and then inoculated orthotopically in the inguinal mammary gland of Balb/c mice (n = 5). […] Tumor volumes were calculated as ellipsoids (Dxd^2/2) by measuring the main diameter (D) and the smaller diameter (d) and plotted versus time (days). The experiment was stopped when tumors in the control group reached ∼500 mm^3, then, the mice were sacrificed, tumors were isolated for weight and lungs were isolated for metastatic foci analysis. Similar experiment was also performed using MMTV-Myc cells. In another set of experiments 4T1 cells stably transfected with Scr-shRNA or PF1-shRNA were inoculated in interscapular space of Balb/c mice (n = 10). […] Tumor-free survival was calculated from Kaplan-Meier curves, and statistical significance was determined using the log-rank test for survival and the t-test for tumor growth. Metastatic dissemination was evaluated by dissecting the lungs from sacrificed mice and inspecting the Bouin-fixed (Sigma) lung surface for lesions using a stereoscope (Nikon SMZ800 stereoscope X3 to X5). […] After 6 days, the number of colonies formed (each originating from a single tumor cell) were counted to evaluate the number of disseminated tumor cells (DTCs). To evaluate DTC proliferation, the number of cells per colony were counted using ImageJ software.

MDA-MB-231 cells [2] = assay: Aldefluor ALDH1 activity in MDA-MB-231; type: cell-based, human; conditions: 1 μM, 72 h; mean of three independent experiments; p = 0.0395
Protocol: (§1) For aldehyde dehydrogenase assay, cells were dissociated with PBS-EDTA and tested for ALDH activity (2 × 10^5 cells/sample), using the Aldefluor assay (Aldegen) according to the manufacturer's instructions. For CD44 and CD24 antigens, cells were dissociated with Accutase, washed with PBS and incubated with PE-conjugated anti-CD24 and APC-conjugated anti-CD44 antibodies (BD Biosciences) for 40 minutes in ice. For quantification of NANOG, OCT4 and SOX2 dissociated cells were fixed with 1% paraformaldehyde (15 min at RT), permeabilized with 0.5% TritonX100 (10 min at RT) and incubated with 1:100 diluted antibodies against NANOG, OCT4 and SOX2 (Cell Signaling) for 1 h at room temperature. The cells were then washed and incubated with fluorophore-conjugated secondary antibodies Abcam). FACS analysis was carried out using a FACScanto flow cytometer, DIVA software program for acquisition (BD Biosciences) and FlowJo (Treestar.) software for analysis.

MDA-MB-231 cells [3] = assay: FACS CD44/CD24 in MDA-MB-231; type: cell-based, human; conditions: 1 μM, 72 h; mean of three independent experiments; p = 0.01
Protocol: as §1

MDA-MB-231 cells [4] = assay: 3D culture colony morphogenesis of MDA-MB-231; type: cell-based, human; conditions: 3D matrigel, 10 days
Protocol: MDA-MB-231 cells were cultured on 8 chambered wells (BD Biosciences) and fixed with 4% paraformaldehyde/PBS for 15 min at room temperature. For 3D cultures cells were seeded (3 × 10^3/well) in quadruplicate onto Matrigel (BD Biosciences) or Cultrex basement membrane extracts (Trevigen) in 8-well culture slides to prepare three-dimensional cultures as described earlier. […] Colony morphology was determined by phase-contrast microscopy. For immunostaining, cells were permeabilized with 0.5% Triton X-100/PBS and blocked with 10% normal goat serum (Invitrogen) in PBS for 1 h. Primary antibodies were incubated overnight at 4°C in blocking buffer and washed 3 times with washing buffer (0.05% Triton X-100/PBS) and once with PBS. Secondary antibodies (dilution 1:200 in 1% normal goat serum/PBS) were added for 1 h and then washed. The samples were then mounted with ProLong Gold antifade reagent with DAPI (Molecular Probes/Invitrogen, CA), following the manufacturer instructions. All incubations and washes were done at 4 or 25°C as required. Confocal microscopy was performed using a Leica SP5 confocal microscope at the Shared Instrumentation facility of department of Hematology at Mount Sinai School of Medicine, NY.

Compound: CC[C@H](C)[C@H](NC(=O)[C@H](CC(C)C)NC(=O)[C@H](CC(C)C)NC(=O)[C@H](CCC(=O)O)NC(=O)[C@H](Cc1ccccc1)NC(=O)[C@@H]1CCCN1C(=O)[C@H](CCCNC(=N)N)NC(=O)[C@H](CCCNC(=N)N)NC(=O)[C@H](CC(C)C)NC(=O)[C@H](CCC(N)=O)NC(=O)CNC(=O)CNC(=O)CNC(=O)[C@H](CCC(N)=O)NC(=O)[C@H](CCCNC(=N)N)NC(=O)[C@H](CCCNC(=N)N)NC(=O)[C@H](CCCCN)NC(=O)[C@H](CCCCN)NC(=O)[C@H](CCCNC(=N)N)NC(=O)CNC(=O)[C@@H](N)Cc1ccc(O)cc1)C(=O)N[C@@H](C)C(=O)N[C@@H](C)C(=O)N[C@@H](C)C(=O)N[C@@H](CCSC)C(=O)N[C@@H](CCC(=O)O)C(=O)N[C@@H](CCCNC(=N)N)C(=O)N[C@@H](CC(N)=O)C(=O)N1CCC[C@H]1C(=O)N[C@H](C(=O)N[C@@H](CCC(N)=O)C(=O)O)[C@@H](C)O [PF1-SID] (H-YGRKKRRQGGGQLRRPFELLIAAAMERNPTQ-OH)
IC50 (PAH2 domain of SIN3A): 15.6 µM

IC50 (PAH2 domain of SIN3A): 1.26 µM
Compound: CC[C@H](C)[C@H](NC(=O)[C@H](CC(N)=O)NC(=O)[C@H](CCSC)NC(=O)[C@H](CCCNC(=N)N)NC(=O)[C@@H](NC(=O)CNC(=O)CNC(=O)CNC(=O)[C@H](CCC(N)=O)NC(=O)[C@H](CCCNC(=N)N)NC(=O)[C@H](CCCNC(=N)N)NC(=O)[C@H](CCCCN)NC(=O)[C@H](CCCCN)NC(=O)[C@H](CCCNC(=N)N)NC(=O)CNC(=O)[C@@H](N)Cc1ccc(O)cc1)C(C)C)C(=O)N[C@@H](CCC(N)=O)C(=O)N[C@@H](CCSC)C(=O)N[C@@H](CC(C)C)C(=O)N[C@@H](CC(C)C)C(=O)N[C@@H](CCC(=O)O)C(=O)N[C@@H](C)C(=O)N[C@@H](C)C(=O)N[C@@H](CC(=O)O)C(=O)N[C@@H](Cc1ccc(O)cc1)C(=O)N[C@@H](CC(C)C)C(=O)N[C@@H](CCC(=O)O)C(=O)N[C@@H](CCCNC(=N)N)C(=O)N[C@@H](CCCNC(=N)N)C(=O)N[C@@H](CCC(=O)O)C(=O)N[C@@H](CCCNC(=N)N)C(=O)O [Tat-SID] (H-YGRKKRRQGGGVRMNIQMLLEAADYLERRER-OH)

Compound: SID peptide: SID peptide expressed from a plasmid vector over a longer time period (previous study) (YGRKKRRQGGGVRMNIQMLLEAADYLERRER)
H3K4me3 at CDH1 and ESR1 promoters [1]: dramatic increases in H3K4^me3

Compound: YGRKKRRQGGG-EQRARRIMERLLEYNMVADL [Tat-Scr]
number of lung metastasis, median (4T1 cells; 4T1 treated ex vivo with 2.5 μM, n = 5, Tat-SID p = 0.0446 versus Tat-Scr, vehicle 23): 13
decrease in lung metastasis versus vehicle (4T1 cells; Tat-Scr 2.5 μM, p = 0.2107): not statistically significant
ALDH+ cells, mean (MDA-MB-231 cells [2]): 21.3%
CD44low/CD24low/neg population, mean (MDA-MB-231 cells [3]): 6.7%
colony morphology (MDA-MB-231 cells [4]): disorganized colonies with invasive projections
